# Experimental data from PubChem BioAssay (NCI).
# “And” between values parts separate entries of the source, which are not always exact repeats. Equal values may be shown once.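 How tested: cells in 96-well plates exposed to compound for 48 hours at five concentrations. Here, GI50 denotes the concentration required for 50% inhibition of growth. TGI denotes the concentration required for complete inhibition of growth.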
# System: SK-MEL-2 melanoma
# Assay: DTP human tumour cell line panel, 48 h
Compound,GI50,TGI
CC[C@]1(O)C[C@@H]2CN(CCc3c([nH]c4ccccc34)[C@@](C(=O)OC)(c3cc4c(cc3OC)N(C)[C@H]3[C@@](O)(C(=O)OC)[C@H](OC(C)=O)[C@]5(CC)C=CCN6CC[C@]43[C@@H]65)C2)C1,< 0.0149 µM,20.2 µM
N#CSc1c[nH]c2cccc(/C=C/C(=O)/C=C(/C=C/c3cccc4[nH]cc(SC#N)c34)OB(F)F)c12,2.4 µM,5.9 µM
COc1cc([N+](=O)[O-])cc2c3c(n(C)c12)[C@@]1(C)CCC2c4ccc(OCc5ccccc5)cc4CCC2C1C3 (some centres undefined),> 100 µM,> 100 µM
C=CC(=O)N1CC2(CCN(c3nc(OC4CCN(CCCOC)CC4)nc4c(OCC(F)(F)F)c(-c5c(C)ccc6[nH]ncc56)c(C5CC5)cc34)CC2)C1,2.19 µM,4.77 µM
CC[C@@H]1C(=O)N(C)c2cnc(Nc3ccc(C(=O)NC4CCN(C)CC4)cc3OC)nc2N1C1CCCC1,,> 10 µM and 6.29 µM
C=C1C(=O)O[C@H]2[C@H]1CC/C(COC(=O)c1ccc3ccccc3c1)=C\CC[C@@]1(C)O[C@@H]21,1.2 µM,2.61 µM
Nc1nc(Cl)c2ncn(Cc3ccc(C45CC6CC(CC(C6)C4)C5)c(O)c3)c2n1,16 µM,48.3 µM
CC[CH2][Sn]([CH2]CC)([O]C(=O)c1cccnc1SC)[O][Sn]([CH2]CC)([CH2]CC)[O]C(=O)c1cccnc1SC,0.299 µM,0.823 µM
CC(C)c1nc(CN(C)C(=O)N[C@H](C(=O)N[C@@H](Cc2ccccc2)C[C@H](O)[C@H](Cc2ccccc2)NC(=O)OCc2cncs2)C(C)C)cs1,31.7 µM,> 100 µM
CC[C@@]1(O)C(=O)OCc2c1cc1n(c2=O)Cc2c-1nc1cc3c(cc1c2CCl)OCO3,0.206 µM,1.22 µM
N#Cc1ccc(O)c(C2=NCC(c3cccc(Oc4ccccc4)c3)O2)c1 (centres undefined),2.41 µM,24.4 µM
O=C1Nc2c(C(F)(F)F)cccc2[C@]1(c1ccc(O)cc1)c1ccc(OC(F)(F)F)cc1,12.6 µM,28.2 µM
CC(=O)OC[C@]1(C)C=C2C(=O)[C@](C)(O)C3(CC3)C(C)=C2[C@H]1O,0.127 µM,0.345 µM
Oc1ccc(NCc2nc3ccccc3[nH]2)cc1,22.8 µM,98.8 µM
C[C@]12CC[C@H]3[C@@H](CC=C4C[C@@H](O)CC[C@@]43C)[C@@H]1CC[C@@H]2N(CCO)CCO,,> 100 µM
O=C1c2cc(Cl)ccc2S(=O)(=O)c2c(NCCCNCCO)nc3ccccc3c21,1.93 µM,4.74 µM
CC(C)(C)OC(=O)N1CCc2c(sc3ncnc(N/N=C/c4cccc5ccccc45)c23)C1,4.38 µM,25.9 µM
CC[C@@H]1CN(C)[C@H]2Cc3c([nH]c4ccccc34)C(=O)C[C@H]1C2C(=O)OC (some centres undefined),,> 100 µM
CCN(CC)c1ccc(/C=C/c2ccc3cc(C)ccc3[n+]2CC)cc1,0.173 µM,0.71 µM
COc1ccc(/C=C/c2nccc3ccccc23)cc1OC,,> 10 µM
COC1/C=C\C=C(/C)C(=O)NC2=CC(=O)C(=O)C(=C2O)CC(C)CC(OC)C(O)C(C)/C=C(\C)C1OC(N)=O (centres undefined),,> 60.5 µM
O=c1[nH]ncc(Br)c1Br,2.16 µM,5.62 µM

# System: COLO 205 colon
# Assay: DTP human tumour cell line panel, 48 h
Compound,GI50,TGI
CC[C@]1(O)C[C@@H]2CN(CCc3c([nH]c4ccccc34)[C@@](C(=O)OC)(c3cc4c(cc3OC)N(C)[C@H]3[C@@](O)(C(=O)OC)[C@H](OC(C)=O)[C@]5(CC)C=CCN6CC[C@]43[C@@H]65)C2)C1,< 0.01 µM,< 0.0194 µM
N#CSc1c[nH]c2cccc(/C=C/C(=O)/C=C(/C=C/c3cccc4[nH]cc(SC#N)c34)OB(F)F)c12,0.293 µM,0.856 µM
COc1cc([N+](=O)[O-])cc2c3c(n(C)c12)[C@@]1(C)CCC2c4ccc(OCc5ccccc5)cc4CCC2C1C3 (some centres undefined),29.3 µM,> 100 µM
C=CC(=O)N1CC2(CCN(c3nc(OC4CCN(CCCOC)CC4)nc4c(OCC(F)(F)F)c(-c5c(C)ccc6[nH]ncc56)c(C5CC5)cc34)CC2)C1,1.97 µM,3.73 µM
CC[C@@H]1C(=O)N(C)c2cnc(Nc3ccc(C(=O)NC4CCN(C)CC4)cc3OC)nc2N1C1CCCC1,0.00326 µM and < 0.01 µM,0.111 µM
